Test results as given in PubChem BioAssay AID248 (DTP/NCI, 2004).
“And” between values parts separate entries of the source, which are not always exact repeats. Identical values can stand only once. Toxic doses and inconclusive results are not listed. Rule as the data show it: active = T/C of 150% or more; inactive = T/C below 125%.

Test system: L1210 leukemia ip in BDF1 mice, survival T/C
Assay: NCI In Vivo Anticancer Drug Screen. Data for tumor model L1210 Leukemia (intraperitoneal) in B6D2F1 (BDF1) mice
Details: endpoint: mean survival time, higher = longer survival
How it was run: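 Transplanted-tumor mice were given test agent; controls received vehicle only. Survival readings from the two groups were divided (treated over control).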

[1] = dose: 100.0 mg/kg/injection, schedule: Q04DX003 (ip), vehicle: saline with Tween-80
[2] = dose: 200.0 mg/kg/injection, schedule: Q04DX003 (ip), vehicle: saline with Tween-80
[3] = dose: 400.0 mg/kg/injection, schedule: Q04DX003 (ip), vehicle: saline with Tween-80
[4] = dose: 100.0 mg/kg/injection, schedule: Q01DX001 (ip), vehicle: saline
[5] = dose: 200.0 mg/kg/injection, schedule: Q01DX001 (ip), vehicle: saline
[6] = dose: 100.0 mg/kg/injection, schedule: Q01DX001 (ip), vehicle: carboxymethylcellulose (CMC)
[7] = dose: 200.0 mg/kg/injection, schedule: Q01DX001 (ip), vehicle: carboxymethylcellulose (CMC)
[8] = dose: 400.0 mg/kg/injection, schedule: Q01DX001 (ip), vehicle: carboxymethylcellulose (CMC)
[9] = dose: 100.0 mg/kg/injection, schedule: Q01DX009 (ip), vehicle: saline with Tween-80
[10] = dose: 200.0 mg/kg/injection, schedule: Q01DX009 (ip), vehicle: saline with Tween-80
[11] = dose: 100.0 mg/kg/injection, schedule: Q01DX009 (ip), vehicle: Klucel (hydroxypropylcellulose) (HPC)
[12] = dose: 200.0 mg/kg/injection, schedule: Q01DX009 (ip), vehicle: Klucel (hydroxypropylcellulose) (HPC)
[13] = dose: 400.0 mg/kg/injection, schedule: Q01DX001 (ip), vehicle: saline
[14] = dose: 50.0 mg/kg/injection, schedule: Q01DX009 (ip), vehicle: saline
[15] = dose: 100.0 mg/kg/injection, schedule: Q01DX009 (ip), vehicle: saline
[16] = dose: 100.0 mg/kg/injection, schedule: Q04DX003 (ip), vehicle: saline
[17] = dose: 200.0 mg/kg/injection, schedule: Q04DX003 (ip), vehicle: saline
[18] = dose: 50.0 mg/kg/injection, schedule: Q01DX001 (ip), vehicle: carboxymethylcellulose (CMC)
[19] = dose: 200.0 mg/kg/injection, schedule: Q01DX009 (ip), vehicle: saline
[20] = dose: 100.0 mg/kg/injection, schedule: Q04DX002 (ip), vehicle: saline with Tween-80
[21] = dose: 200.0 mg/kg/injection, schedule: Q04DX002 (ip), vehicle: saline with Tween-80
[22] = dose: 400.0 mg/kg/injection, schedule: Q04DX002 (ip), vehicle: saline with Tween-80
[23] = dose: 100.0 mg/kg/injection, schedule: Q04DX002 (ip), vehicle: Klucel (hydroxypropylcellulose) (HPC)
[24] = dose: 400.0 mg/kg/injection, schedule: Q01DX009 (ip), vehicle: Klucel (hydroxypropylcellulose) (HPC)
[25] = dose: 400.0 mg/kg/injection, schedule: Q04DX003 (ip), vehicle: saline

Measured: T/C

CC(=O)c1cc(F)ccc1O
inactive: [1] 102 % of control | [2] 97 % of control | [3] 94 % of control

COc1ccc(-n2c(=O)c(N=Nc3ccc(Cl)cc3)c(O)n(-c3ccc(I)cc3)c2=S)cc1
inactive: dose: 37.5 mg/kg/injection, schedule: Q01DX001 (ip), vehicle: Klucel (hydroxypropylcellulose) (HPC) 97 % of control | dose: 75.0 mg/kg/injection, schedule: Q01DX001 (ip), vehicle: Klucel (hydroxypropylcellulose) (HPC) 90 % of control | dose: 150.0 mg/kg/injection, schedule: Q01DX001 (ip), vehicle: Klucel (hydroxypropylcellulose) (HPC) 97 % of control

CC(=O)c1ccccc1OB(F)F
inactive: dose: 50.0 mg/kg/injection, schedule: Q01DX001 (ip), vehicle: saline 98 % of control | [4] 98 % of control | [5] 106 % of control

CC(=O)Oc1ccc(Cl)cc1Cl
inactive: [1] 100 % of control | [2] 97 % of control

CS(=O)(=O)Oc1c(Cl)c(Cl)c(OS(C)(=O)=O)c(Cl)c1Cl
inactive: [6] 101 % of control | [7] 92 % of control | [8] 98 % of control

Cc1cc(-c2cc(C)sc2C)c(C)s1
inactive: [9] 87 % of control | [1] 96 % of control | [10] 92 % of control | [2] 94 % of control | dose: 400.0 mg/kg/injection, schedule: Q01DX009 (ip), vehicle: saline with Tween-80 94 % of control | [3] 96 % of control

CCCCCCCCCC(C)NC(=O)CCl (stereo unspecified)
inactive: dose: 50.0 mg/kg/injection, schedule: Q01DX009 (ip), vehicle: Klucel (hydroxypropylcellulose) (HPC) 87 % of control | [11] 97 % of control | [12] 90 % of control

C[N+](C)(C)C1CCCCCCC(=O)NC1 (stereo unspecified)
inactive: dose: 75.0 mg/kg/injection, schedule: Q01DX009 (ip), vehicle: saline 101 % of control | dose: 150.0 mg/kg/injection, schedule: Q01DX009 (ip), vehicle: saline 92 % of control | dose: 300.0 mg/kg/injection, schedule: Q01DX009 (ip), vehicle: saline 109 % of control

C=CCNC(=O)Nc1cccc(OC(=O)NC(C)(C)C)c1
inactive: [1] 94 % of control | [2] 94 % of control | [3] 94 % of control

O=C(O)c1ccc(CCCCCCl)cc1
inactive: [9] 103 % of control | [10] 111 % of control

CCc1ccc(N=Nc2c(F)c(F)c(N(C)C)c(F)c2F)cc1
inactive: [6] 102 % of control | [7] 100 % of control | [8] 100 % of control

CC1(C)OC(=O)C(C(N)=O)C1c1ccc(Cl)cc1 (stereo unspecified)
inactive: [4] 103 % of control | [5] 104 % of control | [13] 103 % of control

COc1ccc(C(=O)CC(C)=O)c(OCc2ccccc2)c1OC
inactive: [4] 101 % of control | [5] 98 % of control | [13] 104 % of control

Cn1c(=O)n(C)c2ccccc21
inactive: [14] 110 % of control | [15] 106 % of control | [16] 108 % of control | [17] 108 % of control

COc1cc2cc3c4cc(OC)c(OC)cc4cc[n+]3c(/C=C\c3ccccc3O)c2cc1OC
inactive: [18] 106 % of control | [6] 114 % of control | dose: 100.0 mg/kg/injection, schedule: Q04DX002 (ip), vehicle: carboxymethylcellulose (CMC) 100 % of control and 104 % of control | dose: 100.0 mg/kg/injection, schedule: Q04DX003 (ip), vehicle: carboxymethylcellulose (CMC) 109 % of control and 118 % of control | [7] 119 % of control | dose: 200.0 mg/kg/injection, schedule: Q04DX002 (ip), vehicle: carboxymethylcellulose (CMC) 100 % of control and 103 % of control | dose: 200.0 mg/kg/injection, schedule: Q04DX003 (ip), vehicle: carboxymethylcellulose (CMC) 110 % of control and 123 % of control | [8] 116 % of control | dose: 400.0 mg/kg/injection, schedule: Q04DX002 (ip), vehicle: carboxymethylcellulose (CMC) 97 % of control and 104 % of control | dose: 400.0 mg/kg/injection, schedule: Q04DX003 (ip), vehicle: carboxymethylcellulose (CMC) 110 % of control and 115 % of control

CCN=C(N)SCCS(=O)(=O)O
inactive: dose: 100.0 mg/kg/injection, schedule: Q04DX002 (ip), vehicle: saline 98 % of control | dose: 200.0 mg/kg/injection, schedule: Q04DX002 (ip), vehicle: saline 95 % of control | dose: 400.0 mg/kg/injection, schedule: Q04DX002 (ip), vehicle: saline 92 % of control

Cc1ccc(C)c(NC(=O)N2CCN(C)CC2)c1
inactive: [15] 97 % of control | [19] 100 % of control

CCOc1cc(-c2nc3ccccc3s2)ccc1O
inactive: [1] 96 % of control | [2] 101 % of control | [3] 96 % of control

COC1OC(COC(c2ccccc2)(c2ccccc2)c2ccccc2)C(OS(=O)(=O)c2ccc(C)cc2)C(OC(=O)c2ccccc2)C1OC(=O)c1ccccc1 (stereo unspecified)
inactive: [20] 114 % of control | [21] 97 % of control | [22] 90 % of control

CN1c2ccc(Cl)cc2C2(C(=O)NN)C(C(=O)NN)N(C3CCCCC3)C(=O)C12N (stereo unspecified)
inactive: [9] 97 % of control | [10] 107 % of control

O=Cc1c(O)ccc2ccccc12
inactive: [23] 90 % of control | dose: 200.0 mg/kg/injection, schedule: Q04DX002 (ip), vehicle: Klucel (hydroxypropylcellulose) (HPC) 93 % of control | dose: 400.0 mg/kg/injection, schedule: Q04DX002 (ip), vehicle: Klucel (hydroxypropylcellulose) (HPC) 96 % of control

C/C(=N\n1c(-c2ccccc2)nc2ccccc2c1=O)c1ccc(C)cc1
inactive: [11] 98 % of control | [12] 96 % of control | [24] 100 % of control

CC1(C(=O)O)C2C=CC(C2)C1C(=O)O (stereo unspecified)
inactive: [16] 96 % of control | [17] 94 % of control | [25] 102 % of control

CC1(c2ccc(Cl)cc2)NC(=O)N(CN2CCCCC2)C1=O (stereo unspecified)
inactive: dose: 12.5 mg/kg/injection, schedule: Q01DX009 (ip), vehicle: saline sonified 102 % of control | dose: 25.0 mg/kg/injection, schedule: Q01DX009 (ip), vehicle: saline sonified 96 % of control | dose: 50.0 mg/kg/injection, schedule: Q01DX009 (ip), vehicle: saline sonified 104 % of control

c1cc[c]([Ge]([CH2][CH2][Sn]([c]2ccccc2)([c]2ccccc2)[c]2ccccc2)([c]2ccccc2)[c]2ccccc2)cc1
inactive: [20] 102 % of control | [21] 98 % of control | [22] 98 % of control

Cc1ccc2nc(-c3cccc([N+](=O)[O-])c3)oc(=O)c2c1
inactive: [1] 87 % of control | [2] 97 % of control | [3] 97 % of control

Cc1cccc(C)c1NC(=O)Nc1cccc(O)c1
inactive: [11] 101 % of control | [12] 108 % of control | [24] 103 % of control

CN(N)Cc1cccc(O)c1
inactive: [14] 101 % of control | [15] 104 % of control | [19] 101 % of control

CCOC(=O)NCC(CCN(C)C)(CN(C)C)c1cccc2ccccc12 (stereo unspecified)
inactive: dose: 50.0 mg/kg/injection, schedule: Q04DX002 (ip), vehicle: Klucel (hydroxypropylcellulose) (HPC) 102 % of control | [23] 106 % of control

Cc1c([N+](=O)[O-])cc(I)cc1[N+](=O)[O-]
inactive: [1] 106 % of control | [2] 108 % of control | [3] 103 % of control

COC(=O)c1c(O)cc(OC)cc1OC
inactive: dose: 100.0 mg/kg/injection, schedule: Q01DX009 (ip), vehicle: other 108 % of control | [16] 95 % of control | dose: 200.0 mg/kg/injection, schedule: Q01DX009 (ip), vehicle: other 108 % of control | [17] 97 % of control | dose: 400.0 mg/kg/injection, schedule: Q01DX009 (ip), vehicle: other 108 % of control | [25] 111 % of control

S=C=Nc1ccc(Cl)c(Cl)c1
inactive: dose: 12.5 mg/kg/injection, schedule: Q01DX009 (ip), vehicle: saline with Tween-80 104 % of control | dose: 25.0 mg/kg/injection, schedule: Q01DX009 (ip), vehicle: saline with Tween-80 94 % of control | dose: 50.0 mg/kg/injection, schedule: Q01DX009 (ip), vehicle: saline with Tween-80 102 % of control

C=COC(=O)NC(CCC(=O)OC)C(=O)O (stereo unspecified)
inactive: [4] 92 % of control | [5] 101 % of control

O=C(CN1CCOCC1)N1CCN(C(=O)CN2CCOCC2)CC1
inactive: [18] 92 % of control | [6] 97 % of control | [7] 95 % of control | [8] 101 % of control
